Measurements taken from article PMC5218480 (PLoS ONE, 2017).

System: MV-4-11 cells
Test: Gene expression microarray analysis (Affymetrix PrimeView) and GSEA
Type: cell-based, human
Design: RFU PODN (11730768_x_at) / Fold change /veh PODN (11730768_x_at) / RFU LINC00158 (11744669_a_at) / Fold change /veh LINC00158 (11744669_a_at) / RFU DUSP10 (11751237_a_at) / Fold change /veh DUSP10 (11751237_a_at) / RFU ID3 (11757404_x_at) / Fold change /veh ID3 (11757404_x_at) / RFU PLEKHG5 (11737974_s_at) / Fold change /veh PLEKHG5 (11737974_s_at) / RFU LRRC4B (11730491_at) / Fold change /veh LRRC4B (11730491_at) / RFU GIMAP4 (11747438_a_at) / Fold change /veh GIMAP4 (11747438_a_at) / RFU KRT8 (11758183_x_at) / Fold change /veh KRT8 (11758183_x_at) / RFU CNN1 (11734310_a_at) / Fold change /veh CNN1 (11734310_a_at) / RFU VPS37D (11726825_at) / Fold change /veh VPS37D (11726825_at) / RFU C10orf10 (11716522_x_at) / Fold change /veh C10orf10 (11716522_x_at) / RFU KIR2DL2 /// KIR2DL4 /// KIR2DL5A /// KIR2DL5B /// KIR2DS1 /// KIR2DS2 /// KIR2DS3 /// KIR2DS4 /// KIR3DL3 /// KIR3DL3 /// KIR3DS1 (11738374_at) / Fold change /veh KIR2DL2 /// KIR2DL4 /// KIR2DL5A /// KIR2DL5B /// KIR2DS1 /// KIR2DS2 /// KIR2DS3 /// KIR2DS4 /// KIR3DL3 /// KIR3DL3 /// KIR3DS1 (11738374_at) / RFU C1QL1 (11718748_at) / Fold change /veh C1QL1 (11718748_at) / RFU TMPRSS4 (11747572_a_at) / Fold change /veh TMPRSS4 (11747572_a_at) / RFU HAMP (11756126_x_at) / Fold change /veh HAMP (11756126_x_at) / RFU RNFT2 (11725882_a_at) / Fold change /veh RNFT2 (11725882_a_at) / RFU NR4A2 (11747474_a_at) / Fold change /veh NR4A2 (11747474_a_at) / RFU ABCC12 (11746883_a_at) / Fold change /veh ABCC12 (11746883_a_at) / RFU TMEM136 (11760407_x_at) / Fold change /veh TMEM136 (11760407_x_at) / RFU CLDN22 /// WWC2 (11732394_at) / Fold change /veh CLDN22 /// WWC2 (11732394_at) / RFU HLA-DPB1 (11760878_x_at) / Fold change /veh HLA-DPB1 (11760878_x_at) / RFU SPINT1 (11716480_a_at) / Fold change /veh SPINT1 (11716480_a_at) / RFU GAP43 (11754022_s_at) / Fold change /veh GAP43 (11754022_s_at) / RFU A4GNT (11735810_at) / Fold change /veh A4GNT (11735810_at) / RFU PRB3 (11715151_x_at) / Fold change /veh PRB3 (11715151_x_at) / RFU TUBB4B (11761932_at) / Fold change /veh TUBB4B (11761932_at) / RFU CAPN14 (11732068_a_at) / Fold change /veh CAPN14 (11732068_a_at) / RFU TMCC2 (11721928_a_at) / Fold change /veh TMCC2 (11721928_a_at) / RFU IRGQ (11745062_a_at) / Fold change /veh IRGQ (11745062_a_at) / RFU FAM174B (11720279_a_at) / Fold change /veh FAM174B (11720279_a_at) / RFU TMPRSS4 (11748680_a_at) / Fold change /veh TMPRSS4 (11748680_a_at) / RFU FAM212B (11763350_a_at) / Fold change /veh FAM212B (11763350_a_at) / RFU PLEKHG5 (11743358_a_at) / Fold change /veh PLEKHG5 (11743358_a_at) / RFU ZSCAN30 (11745921_a_at) / Fold change /veh ZSCAN30 (11745921_a_at) / RFU CMKLR1 (11741424_a_at) / Fold change /veh CMKLR1 (11741424_a_at) / RFU LOC101060620 /// MAPK8IP1 (11723275_at) / Fold change /veh LOC101060620 /// MAPK8IP1 (11723275_at) / RFU SPTSSB (11747773_x_at) / Fold change /veh SPTSSB (11747773_x_at) / RFU PRSS12 (11739890_at) / Fold change /veh PRSS12 (11739890_at) / RFU BIN1 (11741810_x_at) / Fold change /veh BIN1 (11741810_x_at) / RFU WNT11 (11732464_a_at) / Fold change /veh WNT11 (11732464_a_at) / RFU C10orf10 (11716521_a_at) / Fold change /veh C10orf10 (11716521_a_at) / RFU C5orf56 (11738089_at) / Fold change /veh C5orf56 (11738089_at) / RFU CYB561 (11721691_x_at) / Fold change /veh CYB561 (11721691_x_at) / RFU ANKRD19P (11752326_a_at) / Fold change /veh ANKRD19P (11752326_a_at) / RFU OR2T12 /// OR2T33 /// OR2T8 (11738714_s_at) / Fold change /veh OR2T12 /// OR2T33 /// OR2T8 (11738714_s_at) / RFU VCAN (11748164_a_at) / Fold change /veh VCAN (11748164_a_at) / RFU JSRP1 (11732532_at) / Fold change /veh JSRP1 (11732532_at) / RFU KRTAP10-11 (11738290_x_at) / Fold change /veh KRTAP10-11 (11738290_x_at) / RFU MYO3A (11730013_a_at) / Fold change /veh MYO3A (11730013_a_at) / RFU EBF3 (11725865_a_at) / Fold change /veh EBF3 (11725865_a_at) / RFU CAMK2N1 (11719241_x_at) / Fold change /veh CAMK2N1 (11719241_x_at) / RFU C5orf56 (11738088_a_at) / Fold change /veh C5orf56 (11738088_a_at) / RFU OLFML3 (11715873_a_at) / Fold change /veh OLFML3 (11715873_a_at) / RFU LOC100653217 /// NTM (11731650_a_at) / Fold change /veh LOC100653217 /// NTM (11731650_a_at) / RFU MAPK11 (11762145_a_at) / Fold change /veh MAPK11 (11762145_a_at) / RFU FIZ1 (11724087_x_at) / Fold change /veh FIZ1 (11724087_x_at) / RFU OASL (11726364_x_at) / Fold change /veh OASL (11726364_x_at) / RFU SOX15 (11748057_x_at) / Fold change /veh SOX15 (11748057_x_at) / RFU CD79A (11719716_a_at) / Fold change /veh CD79A (11719716_a_at) / RFU HIST1H1D (11736915_at) / Fold change /veh HIST1H1D (11736915_at) / RFU CASKIN2 (11723855_a_at) / Fold change /veh CASKIN2 (11723855_a_at) / RFU LOC730098 (11760151_x_at) / Fold change /veh LOC730098 (11760151_x_at) / RFU OR4N2 (11742367_at) / Fold change /veh OR4N2 (11742367_at) / RFU PRRT2 (11749266_a_at) / Fold change /veh PRRT2 (11749266_a_at) / RFU SNX32 (11753110_a_at) / Fold change /veh SNX32 (11753110_a_at) / RFU CDHR5 (11726645_a_at) / Fold change /veh CDHR5 (11726645_a_at) / RFU RCAN1 (11760418_a_at) / Fold change /veh RCAN1 (11760418_a_at) / RFU FAM167A (11723789_a_at) / Fold change /veh FAM167A (11723789_a_at) / RFU FAM26E (11764081_at) / Fold change /veh FAM26E (11764081_at) / RFU ISYNA1 (11749810_s_at) / Fold change /veh ISYNA1 (11749810_s_at) / RFU ACY1 (11761880_at) / Fold change /veh ACY1 (11761880_at) / RFU 11764098_at / Fold change /veh 11764098_at / RFU SAMD14 (11745864_x_at) / Fold change /veh SAMD14 (11745864_x_at) / RFU NPB (11741838_a_at) / Fold change /veh NPB (11741838_a_at) / RFU TMPRSS6 (11731388_a_at) / Fold change /veh TMPRSS6 (11731388_a_at) / RFU KRTAP10-2 (11738614_at) / Fold change /veh KRTAP10-2 (11738614_at) / RFU ARHGAP8 /// PRR5-ARHGAP8 (11727945_x_at) / Fold change /veh ARHGAP8 /// PRR5-ARHGAP8 (11727945_x_at) / RFU KRTAP5-7 /// NADSYN1 (11734609_at) / Fold change /veh KRTAP5-7 /// NADSYN1 (11734609_at) / RFU RASL12 (11751679_a_at) / Fold change /veh RASL12 (11751679_a_at) / RFU CDKN2B (11736163_a_at) / Fold change /veh CDKN2B (11736163_a_at) / RFU PRF1 (11729649_at) / Fold change /veh PRF1 (11729649_at) / RFU, ZNF638 /// ZNF638-IT1 / Fold change vs veh, ZNF638 /// ZNF638-IT1 / RFU, PANK3 / Fold change vs veh, PANK3 / RFU, SH3YL1 / Fold change vs veh, SH3YL1 / RFU, ZEB2 / Fold change vs veh, ZEB2 / RFU, NRIP1 / Fold change vs veh, NRIP1 / RFU, PTTG1IP / Fold change vs veh, PTTG1IP / RFU, CAPN2 / Fold change vs veh, CAPN2 / RFU, MED14 / Fold change vs veh, MED14 / RFU, SNORA58 / Fold change vs veh, SNORA58 / RFU, C1orf63 / Fold change vs veh, C1orf63 / RFU, LRRFIP1 / Fold change vs veh, LRRFIP1 / RFU, NDUFAF7 / Fold change vs veh, NDUFAF7 / RFU, SLC12A2 / Fold change vs veh, SLC12A2 / RFU, IBTK / Fold change vs veh, IBTK / RFU, ESF1 / Fold change vs veh, ESF1 / Fold change vs veh, TMEM50B / RFU, TAOK1 / Fold change vs veh, TAOK1 / RFU, ACBD3 / Fold change vs veh, ACBD3 / RFU, TMA16 / Fold change vs veh, TMA16 / RFU, RWDD3 / Fold change vs veh, RWDD3 / RFU, BCAT1 / Fold change vs veh, BCAT1 / RFU, EDEM3 / Fold change vs veh, EDEM3 / RFU, TMEM33 / Fold change vs veh, TMEM33 / RFU, WDR75 / Fold change vs veh, WDR75 / RFU, AHCTF1 / Fold change vs veh, AHCTF1 / RFU, TFRC / Fold change vs veh, TFRC / RFU, ZDHHC17 / Fold change vs veh, ZDHHC17 / RFU, NOM1 / Fold change vs veh, NOM1 / RFU, ARL8B / Fold change vs veh, ARL8B / RFU, ZBTB11 / Fold change vs veh, ZBTB11 / RFU, TAMM41 / Fold change vs veh, TAMM41 / RFU, KIAA1704 /// LOC100996395 / Fold change vs veh, KIAA1704 /// LOC100996395 / RFU, ING1 / Fold change vs veh, ING1 / RFU, TRMT61B / Fold change vs veh, TRMT61B / RFU, FUBP3 / Fold change vs veh, FUBP3 / RFU, TP53 / Fold change vs veh, TP53 / RFU, TNKS2 / Fold change vs veh, TNKS2 / RFU, ZFP14 / Fold change vs veh, ZFP14 / RFU, ACTR2 / Fold change vs veh, ACTR2 / RFU, PPP3R1 / Fold change vs veh, PPP3R1 / RFU, PIK3R1 / Fold change vs veh, PIK3R1 / RFU, HNRNPA1 / Fold change vs veh, HNRNPA1 / RFU, RNF170 / Fold change vs veh, RNF170 / RFU, ZNF28 / Fold change vs veh, ZNF28 / RFU, RNGTT / Fold change vs veh, RNGTT / RFU, OGT / Fold change vs veh, OGT / RFU, BRD1 / Fold change vs veh, BRD1 / RFU, MARS / Fold change vs veh, MARS / RFU, ZNF655 / Fold change vs veh, ZNF655 / RFU, FAHD1 / Fold change vs veh, FAHD1 / RFU, BDP1 / Fold change vs veh, BDP1 / RFU, LRRCC1 / Fold change vs veh, LRRCC1 / RFU, ARID1A / Fold change vs veh, ARID1A / RFU, ZNF146 / Fold change vs veh, ZNF146 / RFU, ZNF330 / Fold change vs veh, ZNF330 / RFU, GPN3 / Fold change vs veh, GPN3 / RFU, C9orf123 / Fold change vs veh, C9orf123 / RFU, N4BP2L2 / Fold change vs veh, N4BP2L2 / RFU, ARFIP1 / Fold change vs veh, ARFIP1 / RFU, FAM179B / Fold change vs veh, FAM179B / RFU, BCL10 / Fold change vs veh, BCL10 / RFU, UHRF1BP1L / Fold change vs veh, UHRF1BP1L / RFU, BET1 / Fold change vs veh, BET1 / RFU, CNOT2 / Fold change vs veh, CNOT2 / RFU, ZNF268 / Fold change vs veh, ZNF268 / Fold change vs veh, ZNF507 / RFU, DGCR2 / Fold change vs veh, DGCR2 / RFU, WDSUB1 / Fold change vs veh, WDSUB1 / Fold change vs veh, HSP90B1 /// MIR3652 / RFU, ADSS / Fold change vs veh, ADSS / RFU, GK / Fold change vs veh, GK / RFU, ZNF148 / Fold change vs veh, ZNF148 / RFU, TAF9 / Fold change vs veh, TAF9 / RFU, SLC1A5 / Fold change vs veh, SLC1A5 / RFU, SLMO2 / Fold change vs veh, SLMO2 / RFU, ABCC4 / Fold change vs veh, ABCC4 / RFU, LOC101060439 /// RAP1B / Fold change vs veh, LOC101060439 /// RAP1B / RFU, RFX7 / Fold change vs veh, RFX7 / RFU, GTPBP10 / Fold change vs veh, GTPBP10 / RFU, CNEP1R1 / Fold change vs veh, CNEP1R1 / RFU, BIVM-ERCC5 /// ERCC5 / Fold change vs veh, BIVM-ERCC5 /// ERCC5 / RFU, ILF3 / Fold change vs veh, ILF3 / RFU 11762660_at / Fold change /veh 11762660_at / RFU VCAN (11757783_s_at) / Fold change /veh VCAN (11757783_s_at) / RFU DDX43 (11728927_at) / Fold change /veh DDX43 (11728927_at) / RFU KRT8 (11758188_x_at) / Fold change /veh KRT8 (11758188_x_at) / RFU NKD1 (11759106_at) / Fold change /veh NKD1 (11759106_at) / RFU SRD5A1 (11742802_a_at) / Fold change /veh SRD5A1 (11742802_a_at) / RFU TPSAB1 /// TPSB2 (11721975_s_at) / Fold change /veh TPSAB1 /// TPSB2 (11721975_s_at) / RFU GSTM3 (11746129_a_at) / Fold change /veh GSTM3 (11746129_a_at) / RFU IL23R (11737362_x_at) / Fold change /veh IL23R (11737362_x_at) / RFU TMEM51 (11727254_a_at) / Fold change /veh TMEM51 (11727254_a_at) / RFU PIWIL2 (11732686_x_at) / Fold change /veh PIWIL2 (11732686_x_at) / RFU ORM1 (11744905_x_at) / Fold change /veh ORM1 (11744905_x_at) / RFU CCDC152 (11743942_at) / Fold change /veh CCDC152 (11743942_at) / RFU ECM1 (11717891_a_at) / Fold change /veh ECM1 (11717891_a_at) / RFU IL23R (11748794_a_at) / Fold change /veh IL23R (11748794_a_at) / RFU TNFAIP8L3 (11732012_x_at) / Fold change /veh TNFAIP8L3 (11732012_x_at) / RFU MBOAT4 (11741988_at) / Fold change /veh MBOAT4 (11741988_at) / RFU 11764193_at / Fold change /veh 11764193_at / RFU TMEM53 (11763286_at) / Fold change /veh TMEM53 (11763286_at) / RFU MAGEB2 (11727129_at) / Fold change /veh MAGEB2 (11727129_at) / RFU TMEM200A (11744735_a_at) / Fold change /veh TMEM200A (11744735_a_at) / RFU CCDC152 (11751479_a_at) / Fold change /veh CCDC152 (11751479_a_at) / RFU FAM211A (11726209_a_at) / Fold change /veh FAM211A (11726209_a_at) / RFU RGS16 (11746705_a_at) / Fold change /veh RGS16 (11746705_a_at) / RFU VCAN (11755009_s_at) / Fold change /veh VCAN (11755009_s_at) / RFU RHOB (11743442_s_at) / Fold change /veh RHOB (11743442_s_at) / RFU RGS16 (11720943_a_at) / Fold change /veh RGS16 (11720943_a_at) / RFU RGS16 (11720944_at) / Fold change /veh RGS16 (11720944_at) / RFU, VPS4B / Fold change vs veh, VPS4B / RFU, CREB1 / Fold change vs veh, CREB1 / RFU, DNAJC13 / Fold change vs veh, DNAJC13 / RFU, GNAQ / Fold change vs veh, GNAQ / RFU, CDK5R1 / Fold change vs veh, CDK5R1 / RFU, ZRANB3 / Fold change vs veh, ZRANB3 / RFU, CUL4A / Fold change vs veh, CUL4A / RFU, CCNY / Fold change vs veh, CCNY / RFU, UFL1 / Fold change vs veh, UFL1 / RFU, COG3 / Fold change vs veh, COG3 / RFU, DIAPH2 / Fold change vs veh, DIAPH2 / RFU, SKA2 / Fold change vs veh, SKA2 / RFU, AFF3 / Fold change vs veh, AFF3 / RFU, LMF1 / Fold change vs veh, LMF1 / RFU, IPO11 / Fold change vs veh, IPO11 / RFU, DFFB / Fold change vs veh, DFFB / RFU, FOXP1 / Fold change vs veh, FOXP1 / RFU, CARD8 / Fold change vs veh, CARD8 / RFU, STRN3 / Fold change vs veh, STRN3 / RFU, ADK / Fold change vs veh, ADK / RFU, RASSF2 / Fold change vs veh, RASSF2 / RFU, WIPF1 / Fold change vs veh, WIPF1 / RFU, LARP1B / Fold change vs veh, LARP1B / RFU, RASA1 / Fold change vs veh, RASA1 / RFU, RB1 / Fold change vs veh, RB1 / RFU, PPFIA1 / Fold change vs veh, PPFIA1 / RFU, MAT2A / Fold change vs veh, MAT2A / RFU, CCT5 / Fold change vs veh, CCT5 / RFU, WDR92 / Fold change vs veh, WDR92 / RFU, CUX1 / Fold change vs veh, CUX1 / RFU, TTC7A / Fold change vs veh, TTC7A / RFU, TMEM135 / Fold change vs veh, TMEM135 / RFU, DEPTOR / Fold change vs veh, DEPTOR / RFU, CPM / Fold change vs veh, CPM / RFU, DNAJB6 / Fold change vs veh, DNAJB6 / RFU, CACNA2D3 / Fold change vs veh, CACNA2D3 / RFU, DTX4 / Fold change vs veh, DTX4 / RFU, TFCP2 / Fold change vs veh, TFCP2 / RFU, GMCL1 /// GMCL1P1 / Fold change vs veh, GMCL1 /// GMCL1P1 / RFU, AEBP2 / Fold change vs veh, AEBP2 / RFU, SNHG1 /// SNORD22 /// SNORD25 /// SNORD26 /// SNORD27 /// SNORD28 /// SNORD29 /// SNORD31 / Fold change vs veh, SNHG1 /// SNORD22 /// SNORD25 /// SNORD26 /// SNORD27 /// SNORD28 /// SNORD29 /// SNORD31 / Fold change (Aza/veh), C12orf56 (ProbeSet 11735607_a_at) / Fold change (ACY-1035/veh), C12orf56 (ProbeSet 11735607_a_at) / Fold change (Aza/veh), FGFR1OP (ProbeSet 11751329_s_at) / Fold change (ACY-1035/veh), FGFR1OP (ProbeSet 11751329_s_at) / Fold change (Aza/veh), VPS36 (ProbeSet 11739960_a_at) / Fold change (ACY-1035/veh), VPS36 (ProbeSet 11739960_a_at) / RFU SYPL1 (11715823_x_at) / Fold change /veh SYPL1 (11715823_x_at) / RFU IGFBP7 (11715501_s_at) / Fold change /veh IGFBP7 (11715501_s_at) / RFU REEP3 (11722064_at) / Fold change /veh REEP3 (11722064_at) / RFU IGLL1 (11728026_x_at) / Fold change /veh IGLL1 (11728026_x_at): dose or concentration left out as unconfirmed
Conditions: MV-4-11 cells, 48 hours

Nc1ccc(-c2cccs2)cc1NC(=O)c1ccc2c(c1)cc(C1CC1)n2CCN1CCOCC1 [ACY-1035]
Fold change /veh MAPK11 (11762145_a_at): 0.89
